Laboratory results from patent publication US12097213B2, “Sequential treatment of cancers using 6-thio-dG, checkpoint inhibitors and radiation therapy” (The Board of Regents of the University of Texas System, priority 2020, dated 2024).

Legend:
Format in all cases: in vivo, mouse
MC38 tumor cells = experiment: MC38 tumor growth and treatment in mice
Protocol: (§1) Tumor growth and treatment. A total of 5×10^5 MC38, 5×10^5 CT26 or 1×10^6 LLC cells were inoculated subcutaneously into right dorsal flanks of the mice in 100 μL phosphate buffered saline (PBS). Tumor-bearing mice were randomly grouped into treatment groups when tumors grew to around 100 mm^3. For 6-thio-dG single treatment, 3 mg/kg 6-thio-dG was intraperitoneally given on days 7, 8 and 9 in MC38 tumor and LLC tumor and on days 5, 6, 7 for CT26 tumor. For CSF1R, NKL.1, CD4+ and CD8+ T cell depletion, 200 μg of antibodies were intraperitoneally injected 1 day before treatment initiation and then twice a week for 2 weeks. For PD-L1 blockade combination therapy in MC38 model, 6-thio-dG was given on day 10 and day 11, 50 μg PD-L1 was intraperitoneally injected on day 13 and 17. For PD-L1 blockade combination therapy in LLC model, 6-thio-dG was given on day 4, 5, 6, 10 and 11, 200 μg PD-L1 was intraperitoneally injected on day 8 and 13. Tumor volumes were measured by the length (a), width (b) and height (h) and calculated as tumor volume=abh/2.

[1] = system: LLC murine lung tumor cells; experiment: LLC tumor growth and treatment in mice
Protocol: as §1, with “For 6-thio-dG single treatment, 3 mg/kg 6-thio-dG was intraperitoneally given on days 7, 8 and 9 in MC38 tumor and LLC tumor and on days 5, 6, 7 for CT26 tumor.” left out

tumor-specific T cells = experiment: IFN-γ ELISPOT of splenocytes / draining lymph node cells; conditions: advanced MC38 tumors; stimulated with irradiated MC38 tumor cells
Protocol: IFN-γ enzyme-linked immunosorbent spot assay (ELISPOT). MC38 tumors were injected subcutaneously on the right flank of C57BL/6. For 6-thio-dG single treatment, 3 mg/kg 6-thio-dG was intraperitoneally given on days 7, 8 and 9; for PD-L1 blockade combination therapy in MC38 model, 3 mg/kg 6-thio-dG was given on day 10 and day 11, 50 μg PD-L1 was intraperitoneally injected on day 11. 7 days after last treatment, tumor draining lymphoid and spleen from tumor-bearing mice were collected and single-cell suspension was prepared. Irradiated MC38 tumor cells and control LLC tumor cells were used to re-stimulate the tumor-specific T cells. 1.5×10^5 draining lymph nodes cells or splenocytes and 7.5×10^4 irradiated tumor cells were co-cultured for 48 hrs, and ELISPOT assay was performed using the IFN-γ ELISPOT kit (BD Bioscience) according to the manufacturer's instructions. IFN-γ spots were enumerated with the CTL-ImmunoSpot® S6 Analyzer (Cellular Technology Limited).

Substance: anti-PD-L1: fully humanized, engineered monoclonal antibody of IgG1 isotype against PD-L1 (Atezolizumab) [reference compound]
- MC38 tumors in LLC cured mice (MC38 tumor cells; LLC cured mice injected with MC38): had no affect
- tumor volume / tumor growth in advanced tumors (MC38 tumor cells; tumor sizes 150-200 mm^3, 6-thio-dG 3 mg/kg days 10, 11, 50 μg anti-PD-L1 days 13 and 17): difficult to control
- tumor burden ([1]; PD-L1 blockade resistant LLC model, 6-thio-dG 3 mg/kg days 4, 5, 6, 10, 11, 200 μg anti-PD-L1 days 8 and 13): no therapeutic effect
- tumor growth (FIG. 8A) ([1]; lewis lung carcinoma, three days 6-thio-dG followed two days later with anti-PD-L1): same rapid tumor growth
- tumor-specific T cell response in draining lymph nodes (IFN-γ production) (tumor-specific T cells): little effect
